Source: PubChem BioAssay AID2060601 (Molecular Pharmacology Branch, DTP, NCI, 2025)

Tested on: 874868-142-R-J2-PDC complex spheroids, growth % test/control
Assay: Anticancer human tumor 874868-142-R-J2-PDC patient-derived head and neck squamous carcinoma cell line growth inhibition [CLK]
Details: for IC50: curve of first compound; for viability, T/C: stronger effect = lower value
In short: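 Patient-derived tumor cells grown as complex spheroids with HUVEC endothelial cells and mesenchymal stem cells, treated with drug combinations. Concentrations descend in half-log steps from near clinical Cmax, or from 10 microM if Cmax unknown.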
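Also: spheroids exposed to the compounds for 7 days.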
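For viability, T/C in this document: 100% = DMSO vehicle control viability.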

In the case of C=CC(=O)Nc1cc(Nc2nccc(-c3cn(C)c4ccccc34)n2)c(OC)cc1N(C)CCN(C)C + CNC(=O)c1ccc(Nc2nc(OC3CCCC3)c3c(-c4ccc5nc(C)oc5c4)c[nH]c3n2)c(OC)c1, the IC50 (second compound 0.0316 µM) is reported as 35.9 nM, the IC50 (second compound 0.1 µM) is reported as 22.2 nM and the IC50 (second compound 0.316 µM) is reported as 4.75 nM. For the same molecule, the IC50 (second compound 1 µM) was less than 0.949 nM, the IC50 (second compound 3.16 µM) was less than 0.949 nM and the IC50 (second compound 10 µM) was less than 0.949 nM. It also gave a viability, T/C (second compound 0.0316 µM, first compound 0.000949 µM) of 101%, a viability, T/C (second compound 0.0316 µM, first compound 0.003 µM) of 115% and a viability, T/C (second compound 0.0316 µM, first compound 0.00949 µM) of 77.4%. The viability, T/C (second compound 0.0316 µM, first compound 0.03 µM) was 51.3%, the viability, T/C (second compound 0.0316 µM, first compound 0.0949 µM) was 45.7% and the viability, T/C (second compound 0.0316 µM, first compound 0.3 µM) was 23.9%. For the same molecule, the viability, T/C (second compound 0.1 µM, first compound 0.000949 µM) was 103%, the viability, T/C (second compound 0.1 µM, first compound 0.003 µM) was 75% and the viability, T/C (second compound 0.1 µM, first compound 0.00949 µM) was 57.5%. The viability, T/C (second compound 0.1 µM, first compound 0.03 µM) was 52.4%, the viability, T/C (second compound 0.1 µM, first compound 0.0949 µM) was 30.6% and the viability, T/C (second compound 0.1 µM, first compound 0.3 µM) was 19.8%. It also gave a viability, T/C (second compound 0.316 µM, first compound 0.000949 µM) of 64.4%, a viability, T/C (second compound 0.316 µM, first compound 0.003 µM) of 48.9% and a viability, T/C (second compound 0.316 µM, first compound 0.00949 µM) of 48%. For the same molecule, the viability, T/C (second compound 0.316 µM, first compound 0.03 µM) was 38.5%, the viability, T/C (second compound 0.316 µM, first compound 0.0949 µM) was 24.8% and the viability, T/C (second compound 0.316 µM, first compound 0.3 µM) was 24.3%. For the same molecule, the viability, T/C (second compound 1 µM, first compound 0.000949 µM) was 48.9%, the viability, T/C (second compound 1 µM, first compound 0.003 µM) was 40.5% and the viability, T/C (second compound 1 µM, first compound 0.00949 µM) was 38.6%. It also gave a viability, T/C (second compound 1 µM, first compound 0.03 µM) of 32.5%, a viability, T/C (second compound 1 µM, first compound 0.0949 µM) of 26.4% and a viability, T/C (second compound 1 µM, first compound 0.3 µM) of 14.4%. For the same molecule, the viability, T/C (second compound 3.16 µM, first compound 0.000949 µM) was 43.4%, the viability, T/C (second compound 3.16 µM, first compound 0.003 µM) was 39.6% and the viability, T/C (second compound 3.16 µM, first compound 0.00949 µM) was 38%. It also gave a viability, T/C (second compound 3.16 µM, first compound 0.03 µM) of 31.5%, a viability, T/C (second compound 3.16 µM, first compound 0.0949 µM) of 25.5% and a viability, T/C (second compound 3.16 µM, first compound 0.3 µM) of 20%. It also gave a viability, T/C (second compound 10 µM, first compound 0.000949 µM) of 41.8%, a viability, T/C (second compound 10 µM, first compound 0.003 µM) of 37.7% and a viability, T/C (second compound 10 µM, first compound 0.00949 µM) of 32.7%. It also gave a viability, T/C (second compound 10 µM, first compound 0.03 µM) of 32.3%, a viability, T/C (second compound 10 µM, first compound 0.0949 µM) of 28% and a viability, T/C (second compound 10 µM, first compound 0.3 µM) of 18.3%.
